The values that follow are results of earlier work, collected in patent US6663901B1, “Pellets having a core coated with an antifungal and a polymer” (Janssen Pharmaceutical N.V., priority 1998, dated 2003).

As to `CCC(C)n1ncn(-c2ccc(N3CCN(c4ccc(OCC5COC(Cn6cncn6)(c6ccc(Cl)cc6Cl)O5)cc4)CC3)cc2)c1=O` (racemic) [itraconazole, (±)-cis-4-[4-[4-[4-[[2-(2,4-dichlorophenyl)-2-(1H-1,2,4-triazol-1-methyl)-1,3-dioxolan-4-yl]methoxy]phenyl]-1-piperazinyl]phenyl]-2,4-dihydro-2-(1-methylpropyl)-3H-1,2,4-triazol-3-one], the solubility in water result is “only very sparingly soluble”.
